Measured values as given in US20100061984A1, “COMPOSITIONS AND METHODS FOR MODULATION OF SUPPRESSOR T CELL ACTIVATION” (The Trustees of the University of Pennsylvania, priority 2006, published 2010).
Marks after values point to notes of the source that are not given here.

What was measured:
[1] = system: FOXP3+CD25+ cells; experiment: flow cytometry of splenocytes from collagen induced arthritic mice for CD4, CD25 and FOXP3; assay type: in vivo
Experimental: Splenocytes from collagen induced arthritic mice treated with VPA (no disease evident) or PBS (disease evident) were stained for cell-surface CD25 and intracellular FOXP3. The CD25+FOXP3+cell subpopulation was gated, and FOXP3 level was analyzed.
(§1) HDAC inhibitor treatment in collagen induced arthritis: HDAC inhibitor VPA was tested in the collagen induced arthritis (CIA) disease model of rheumatoid arthritis. CD4+ T cells as well as B cells are responsible for disease manifestation within the joints and CD25+ Treg play a protective role in disease development. After disease induction with type II collagen, mice were administered VPA (400 mg/kg) or PBS ip daily for 5 weeks. They were scored for severity of disease twice per week. […] Splenocytes from collagen induced arthritic mice that were treated with VPA (no disease evident) or PBS (disease evident) were analyzed for expression of CD4, CD25 and FOXP3 by flow cytometry. […] Additionally, the intracellular levels of FOXP3 protein were elevated in the VPA treated mice compared to PBS mice (FIG. 10). […] In proposed studies VPA treated CD25+ cells will be compared to PBS treated CD25+ cells for increased functional regulatory activity in vitro. HDAC inhibitor VPA is able to modify disease progression in the CIA model of rheumatoid arthritis.

[2] = system: autoimmune models; experiment: several autoimmune models (NOD, EAE, CIA); assay type: in vivo; settings: MOG-induced EAE and CIA mouse models
Excerpt: Studies of the rational inactivation of HDACs have been initiated with the intent of modifying FOXP3 acetylation. […] This treatment leads to increased FoxP3^+ suppressor cell levels and function. The models studied include the Nonobese Diabetic Mice (NOD) model, the myelin oligodendrocyte glycoprotein-induced experimental autoimmune encephalomyelitis (EAE) model, and the collagen-induced arthritis (CIA) mouse model.

[3] = system: Experimental Autoimmune Encephalomyelitis; experiment: experimental autoimmune encephalomyelitis model (MOG38-50 peptide); assay type: in vivo; settings: Table 1, 7-10 mice per group, PBS 100%
Excerpt: (§2) Experiments were done to test the effect of valproic acid (VPA) on autoimmune disease models. Three models were used: a collagen induced arthritis (CIA) model; a non-obese diabetic mouse model; and an experimental autoimmune encephalomyelitis model. Collagen used in the CIA model was collagen from chicken sternal cartilage powder, Type II, from Sigma Cat#C9301. The peptide that was used in EAE experiments was Mouse MOG38-50 peptide ([…]-SEQ ID NO:1), which was synthesized using>F-moc solid phase methods and purified through HPLC by Invitrogen Life Technologies. For each model tested 7-10 mice were used per group. Results obtained with VPA were compared to those using the negative control phosphate buffered saline.

[4] = system: Non-obese diabetic mouse; experiment: non-obese diabetic mouse model; assay type: in vivo; settings: Table 1, 7-10 mice per group, PBS 50%
Excerpt: as §2

[5] = system: collagen induced arthritis (CIA); experiment: collagen induced arthritis (CIA) disease model of rheumatoid arthritis; assay type: in vivo, mice
Experimental: as §1, §2

SMILES | intracellular levels of FOXP3 protein compared to PBS mice ([1]; CD25+FOXP3+ gated splenocytes from CIA mice (FIG. 10)) | increase in the percentage of FOXP3+CD25+ cells, VPA treated versus PBS treated splenocytes ([1]; splenocytes from CIA mice, flow cytometry) [fold] | FoxP3+ suppressor cell levels and function [2] | clinical effects in autoimmune models [2] | Incidence of Disease [3] [%*] | Incidence of Disease [4] [%] | Incidence of Disease ([5]; Collagen Induced Arthritis, Table 1, 7-10 mice per group, PBS 100%) [%] | mice showing any disease at the end of the 5 week study ([5]; VPA 400 mg/kg ip daily for 5 weeks after induction with type II collagen, PBS group 100%) [%] | disease severity compared to PBS treated ([5]; VPA 400 mg/kg ip daily for 5 weeks, scored twice per week)
CCCC(CCC)C(=O)O [VPA, valproic acid] | elevated | 1.63 | increased | significant clinical effects | 57 | 20 | 29 | 25 | greatly reduced
CC(/C=C/C(=O)NO)=C\[C@@H](C)C(=O)c1ccc(N(C)C)cc1 [TSA, Trichostatin A] |  |  | increased | significant clinical effects |  |  |  |  | 
